The inhibition is how much of the control response was suppressed. A higher inhibition goes with a response far below the control.

In this experiment the target is T1, HCMV polymerase (Human cytomegalovirus, UniProt P08546).
T1 construct: made in house; host or cells: SF-9 insect cells infected with recombinant baculovirus
T1 sequence (P08546 whole entry): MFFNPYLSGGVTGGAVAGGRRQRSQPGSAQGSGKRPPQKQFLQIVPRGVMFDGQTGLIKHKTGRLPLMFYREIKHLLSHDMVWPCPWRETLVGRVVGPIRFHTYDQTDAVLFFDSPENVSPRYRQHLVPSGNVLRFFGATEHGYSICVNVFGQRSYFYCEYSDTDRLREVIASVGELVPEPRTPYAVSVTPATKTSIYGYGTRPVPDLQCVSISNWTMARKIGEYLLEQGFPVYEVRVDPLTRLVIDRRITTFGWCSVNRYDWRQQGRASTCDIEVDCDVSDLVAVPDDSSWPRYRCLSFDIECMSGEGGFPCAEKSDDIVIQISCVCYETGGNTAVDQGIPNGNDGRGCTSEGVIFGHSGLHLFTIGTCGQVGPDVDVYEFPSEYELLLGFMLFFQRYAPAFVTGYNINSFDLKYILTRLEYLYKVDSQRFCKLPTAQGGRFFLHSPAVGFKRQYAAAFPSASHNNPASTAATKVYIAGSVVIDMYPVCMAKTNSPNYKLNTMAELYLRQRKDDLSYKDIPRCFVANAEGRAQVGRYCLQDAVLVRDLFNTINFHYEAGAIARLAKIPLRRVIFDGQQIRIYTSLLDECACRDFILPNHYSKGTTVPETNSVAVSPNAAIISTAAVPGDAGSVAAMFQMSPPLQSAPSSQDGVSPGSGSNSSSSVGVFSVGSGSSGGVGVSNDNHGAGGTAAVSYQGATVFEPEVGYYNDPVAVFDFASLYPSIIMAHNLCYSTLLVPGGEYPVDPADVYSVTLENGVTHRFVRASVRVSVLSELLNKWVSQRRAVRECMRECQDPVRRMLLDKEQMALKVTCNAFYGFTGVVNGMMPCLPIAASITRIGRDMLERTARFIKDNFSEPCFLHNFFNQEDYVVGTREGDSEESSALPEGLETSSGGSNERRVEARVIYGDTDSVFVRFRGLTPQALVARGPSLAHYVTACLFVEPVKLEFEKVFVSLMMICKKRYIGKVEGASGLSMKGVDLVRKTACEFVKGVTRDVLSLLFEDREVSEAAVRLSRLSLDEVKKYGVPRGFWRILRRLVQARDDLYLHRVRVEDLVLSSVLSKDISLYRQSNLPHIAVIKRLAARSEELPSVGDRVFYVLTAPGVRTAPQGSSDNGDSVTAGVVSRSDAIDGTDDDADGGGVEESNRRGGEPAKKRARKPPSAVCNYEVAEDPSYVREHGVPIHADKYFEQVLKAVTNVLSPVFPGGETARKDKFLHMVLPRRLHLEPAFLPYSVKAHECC
The experiment in a line: HCMV polymerase assay (scintillation proximity assay). Format: biochemical. The following applies: percentage of inhibition at 25 μM concentration in CMV polymerase assay. The method, then:
The compounds of the present invention are tested in an polymerase assay to show activity described below, which is indicative of a compound's activity and thus of its use as an anti-viral agent.
The HCMV polymerase assay is performed using a scintillation proximity assay (SPA) as described in several references, such as N. D. Cook, et al., Pharmaceutical Manufacturing International, pages 49-53 (1992); K. Takeuchi, Laboratory Practice, September issue (1992); U.S. Pat. No. 4,568,649 (1986); which are incorporated by reference herein. Reactions are performed in 96-well plates. The assay is conducted in 100 μl volume with 5.4 mM HEPES (pH 7.5), 11.7 mM KCl, 4.5 mM MgCl2, 0.36 mg/ml BSA, and 90 nM ^3 H-dTTP. Assays are run with and without CHAPS, (3-[(3-Cholamidopropyl)-dimethylammonio]-1-propanesulfonate) at a final concentration of 2 mM. HCMV is diluted in enzyme dilution buffer containing 50% glycerol, 250 mM NaCl, 10 mM HEPES (pH 7.5), 100 μg/ml BSA, and 0.01% sodium azide. The HCMV polymerase, which is expressed in recombinant baculovirus-infected SF-9 cells and purified according to literature procedures, is added at 10% (or 10 μl) of the final reaction volume, i.e., 100 μl. Compounds are diluted in 50% DMSO and 10 μl are added to each well. Control wells contain an equivalent concentration of DMSO. Unless noted otherwise, reactions are initiated via the addition of 6 nM biotinylated poly(dA)-oligo(dT) template/primer to reaction mixtures containing the enzyme, substrate, and compounds of interest. Plates are incubated in a 25° C. or 37° C. H2 O bath and terminated via the addition of 40 μl/reaction of 0.5 M EDTA (pH 8) per well. Reactions are terminated within the time-frame during which substrate incorporation is linear and varied depending upon the enzyme and conditions used, i.e., 30 min. for HCMV polymerase. Ten μl of streptavidin-SPA beads (20 mg/ml in PBS/10% glycerol) are added following termination of the reaction. Plates are incubated 10 min. at 37° C., then equilibrated to room temperature, and counted on a Packard Topcount.
In TABLE 1, "MS" refers to mass spectral data, "% inhib" refers to percentage of inhibition at 25 μM concentration in CMV polymerase assay.
For orientation: SPA uses beads or plates that emit light when radiolabelled molecules are held near them.
`CC1(C)C2CC[C@@H](CNc3nnc(NC(=O)c4ccc(C#N)cc4)s3)C1C2` (stereo partly drawn) [compound 307, 4-cyano-N-[5-({[(2R)-6,6-dimethylbicyclo[3.1.1]hept-2-yl]methyl}amino)-1,3,4-thiadiazol-2-yl]benzamide] displayed an inhibition at 25 µM of 34.2%.

`CC(C)c1cc(C(C)C)c(C(=O)Nc2nnc(NCCCCc3ccccc3)s2)c(C(C)C)c1` [compound 260, 2,4,6-triisopropyl-N-{5-[(4-phenylbutyl)amino]-1,3,4-thiadiazol-2-yl}benzamide] had an inhibition at 25 µM of 39.6%.

Turning to `O=C(/C=C/c1ccccc1Cl)Nc1nnc(NCCC(c2ccccc2)c2ccccc2)s1` [compound 240, (E)-3-(2-chlorophenyl)-N-{5-[(3,3-diphenylpropyl)amino]-1,3,4-thiadiazol-2-yl}-2-propenamide], 25 µM produced 41.3% inhibition.

Take `O=C(Nc1nnc(NCCCN2CCCC2=O)s1)c1ccc(S(=O)(=O)F)cc1` [compound 371, 4-{[(5-{[3-(2-oxo-1-pyrrolidinyl)propyl]amino}-1,3,4-thiadiazol-2-yl)amino]carbonyl}benzenesulfonyl fluoride]: the “% Inhib” value stood at 28.1%.

The molecule `O=C(/C=C/c1ccccc1Cl)Nc1nnc(NCCc2ccccc2)s1` [compound 210, (E)-3-(2-chlorophenyl)-N-[5-(phenethylamino)-1,3,4-thiadiazol-2-yl]-2-propenamide] showed an inhibition at 25 µM of 44.6%.

For the molecule `O=C(Nc1nnc(NCCc2c[nH]cn2)s1)c1ccc(I)cc1` [compound 454, N-(5-{[2-(1H-imidazol-4-yl)ethyl]amino}-1,3,4-thiadiazol-2-yl)-4-iodobenzamide], the inhibition at 25 µM worked out at 21.2%.

For `CC(C)c1cc(C(C)C)c(C(=O)Nc2nnc(NCC3CCCCC3)s2)c(C(C)C)c1` [compound 409, N-{5-[(cyclohexylmethyl)amino]-1,3,4-thiadiazol-2-yl}-2,4,6-triisopropylbenzamide], the inhibition at 25 µM was 24.9%.

As for `CC(C)c1cc(C(C)C)c(C(=O)Nc2nnc(NCCNc3ccccc3)s2)c(C(C)C)c1` [compound 248, N-{5-[(2-anilinoethyl)amino]-1,3,4-thiadiazol-2-yl}-2,4,6-triisopropylbenzamide], at 25 µM the inhibition was 40.8%.

`O=C(CCCCCl)Nc1nnc(NCCc2ccccc2)s1` [compound 354, 5-chloro-N-[5-(phenethylamino)-1,3,4-thiadiazol-2-yl]pentanamide]: the inhibition at 25 µM came to 29.9%.

On to `O=C(/C=C/c1ccccc1)Nc1nnc(NCc2cccnc2)s1` [compound 421, (E)-3-phenyl-N-{5-[(3-pyridinylmethyl)amino]-1,3,4-thiadiazol-2-yl}-2-propenamide], for which at 25 µM the inhibition was 24%.

`O=C(Nc1nnc(NCCC(c2ccccc2)c2ccccc2)s1)c1cccc([N+](=O)[O-])c1` [compound 226, N-{5-[(3,3-diphenylpropyl)amino]-1,3,4-thiadiazol-2-yl}-3-nitrobenzamide] yielded an inhibition at 25 µM of 42.9%.

Molecule `COc1ccccc1C(=O)Nc1nnc(NCc2ccc(Cl)c(Cl)c2)s1` [compound 452, N-{5-[(3,4-dichlorobenzyl)amino]-1,3,4-thiadiazol-2-yl}-2-methoxybenzamide] showed an inhibition at 25 µM of 21.3%.

Regarding `CCSCCNc1nnc(NC(=O)c2ccc(C(F)(F)F)cc2)s1` [compound 406, N-(5-{[2-(ethylsulfanyl)ethyl]amino}-1,3,4-thiadiazol-2-yl)-4-(trifluoromethyl)benzamide], at 25 µM the inhibition was 25%.

In turn, `O=C(Nc1nnc(NC2CCCCCC2)s1)c1c(Cl)cccc1Cl` [compound 369, 2,6-dichloro-N-[5-(cycloheptylamino)-1,3,4-thiadiazol-2-yl]benzamide] had an inhibition at 25 µM of 28.3%.

Regarding `CC(C)c1cc(C(C)C)c(C(=O)Nc2nnc(NC3CCN(Cc4ccccc4)CC3)s2)c(C(C)C)c1` [compound 265, N-{5-[(1-benzyl-4-piperidinyl)amino]-1,3,4-thiadiazol-2-yl}-2,4,6-triisopropylbenzamide], the inhibition at 25 µM came to 39.1%.

With `O=C(Nc1nnc(NCC(c2ccccc2)c2ccccc2)s1)c1cc2ccccc2s1` [compound 187, N-{5-[(2,2-diphenylethyl)amino]-1,3,4-thiadiazol-2-yl}-1-benzothiophene-2-carboxamide], the inhibition at 25 µM stood at 47.2%.

Take `N#Cc1ccc(C(=O)Nc2nnc(NCc3cccs3)s2)cc1` [compound 365, 4-cyano-N-{5-[(2-thienylmethyl)amino]-1,3,4-thiadiazol-2-yl}benzamide]: the inhibition at 25 µM was 28.7%.

On to `O=C(Nc1nnc(NCc2cccc3ccccc23)s1)c1cccc([N+](=O)[O-])c1` [compound 190, N-{5-[(1-naphthylmethyl)amino]-1,3,4-thiadiazol-2-yl}-3-nitrobenzamide], for which 25 µM produced 47.1% inhibition.

`O=C(Nc1nnc(NCCCCc2ccccc2)s1)c1cccc([N+](=O)[O-])c1` [compound 413, 3-nitro-N-{5-[(4-phenylbutyl)amino]-1,3,4-thiadiazol-2-yl}benzamide] showed an inhibition at 25 µM of 24.7%.

Turning to `O=C(/C=C/c1ccccc1Cl)Nc1nnc(NCCN2CCCC2)s1` [compound 397, (E)-3-(2-chlorophenyl)-N-(5-{[2-(1-pyrrolidinyl)ethyl]amino}-1,3,4-thiadiazol-2-yl)-2-propenamide], the inhibition at 25 µM came out at 25.9%.

For `O=C(Nc1nnc(NC2CCN(Cc3ccccc3)CC2)s1)c1cc2ccccc2s1` [compound 218, N-{5-[(1-benzyl-4-piperidinyl)amino]-1,3,4-thiadiazol-2-yl}-1-benzothiophene-2-carboxamide], the inhibition at 25 µM was determined as 43.6%.

Regarding `O=C(Nc1nnc(NCCN2CCCC2)s1)c1c(Cl)cccc1Cl` [compound 370, 2,6-dichloro-N-(5-{[2-(1-pyrrolidinyl)ethyl]amino}-1,3,4-thiadiazol-2-yl)benzamide], the inhibition at 25 µM stood at 28.3%.

`O=C(Nc1nnc(NC2CCN(Cc3ccccc3)CC2)s1)c1ccc([N+](=O)[O-])o1` [compound 456, N-{5-[(1-benzyl-4-piperidinyl)amino]-1,3,4-thiadiazol-2-yl}-5-nitro-2-furamide] gave an inhibition at 25 µM of 20.8%.

`CC(C)c1cc(C(C)C)c(C(=O)Nc2nnc(NCc3cccc4ccccc34)s2)c(C(C)C)c1` [compound 173, 2,4,6-triisopropyl-N-{5-[(1-naphthylmethyl)amino]-1,3,4-thiadiazol-2-yl}benzamide] returned an inhibition at 25 µM of 49.5%.

`CCCCCCCC/C=C/CCCCCCCC(=O)Nc1nnc(NCCC2CCCN2C)s1` (centres unmarked) [compound 5, (E)-N-(5-{[2-(1-methyl-2-pyrrolidinyl)ethyl]amino}-1,3,4-thiadiazol-2-yl)-9-octadecenamide]: 25 µM produced 99.9% inhibition.

`COc1ccccc1C(=O)Nc1nnc(NCCCCc2ccccc2)s1` [compound 429, 2-methoxy-N-{5-[(4-phenylbutyl)amino]-1,3,4-thiadiazol-2-yl}benzamide] gave an inhibition at 25 µM of 23.2%.

In turn, `COc1ccccc1C(=O)Nc1nnc(NCCc2ccc(S(N)(=O)=O)cc2)s1` [compound 366, N-(5-{[4-(aminosulfonyl)phenethyl]amino}-1,3,4-thiadiazol-2-yl)-2-methoxybenzamide] gave an inhibition at 25 µM of 28.6%.

Turning to `COc1ccccc1C(=O)Nc1nnc(NCc2ccc3c(c2)OCO3)s1` [compound 414, N-{5-[(1,3-benzodioxol-5-ylmethyl)amino]-1,3,4-thiadiazol-2-yl}-2-methoxybenzamide], testing at 25 µM gave an inhibition of 24.7%.

Turning to `CCCCCCCCCCCNc1nnc(NC(=O)c2ccc(F)cc2F)s1` [compound 121, 2,4-difluoro-N-[5-(undecylamino)-1,3,4-thiadiazol-2-yl]benzamide], at 25 µM the inhibition was 60%.

For `O=C(Nc1nnc(NC2CCCCCC2)s1)c1cc2ccccc2s1` [compound 256, N-[5-(cycloheptylamino)-1,3,4-thiadiazol-2-yl]-1-benzothiophene-2-carboxamide], testing at 25 µM gave an inhibition of 39.8%.

`O=C(/C=C/c1ccccc1)Nc1nnc(NCc2ccccn2)s1` [compound 139, (E)-3-phenyl-N-{5-[(2-pyridinylmethyl)amino]-1,3,4-thiadiazol-2-yl}-2-propenamide]: testing at 25 µM gave an inhibition of 56.2%.

Regarding `O=C(Nc1nnc(NCc2cccc3ccccc23)s1)c1cc2ccccc2s1` [compound 214, N-{5-[(1-naphthylmethyl)amino]-1,3,4-thiadiazol-2-yl}-1-benzothiophene-2-carboxamide], the inhibition at 25 µM came to 44.1%.

These data come from patent publication US6150385A, “1,3,4-thiadiazoles useful for the treatment of CMV infections” (Pharmacia & Upjohn Company, priority 1999, dated 2000).
